Assays:
[1] = Phase 1 first-in-human safety, tolerability and pharmacokinetic studies of Compound A in healthy subjects; format: in vivo
Experimental: (§1) In this study subjects with diabetic neuropathic pain were administered 100 mg BID up to 6 weeks and dosing has been completed. Nevertheless, if there is any new safety signal observed during this study, dosing of Compound A can be discontinued based on the joint decision of the investigators and study sponsor's medical monitor.
(§2) Single doses of Compound A up to 170 mg were well-tolerated in healthy subjects. The Compound A dose of 100 mg twice daily (BID) is the clinical dose used in the ongoing Phase 2a study in subjects with diabetic neuropathic pain. The dose of 100 mg is selected in the current study to explore the effect of Compound A in a microneurography model in order to bridge the efficacy outcome of Compound A in the Phase 2a study.
The safety, tolerability, and pharmacokinetics of Compound A in humans have been evaluated in 94 healthy adult subjects in the Phase 1 first-in-human (FIH) study with the single dose up to 170 mg and multiple doses up to 160 mg for 7 to 14 days. […] Given that Compound A is an investigational drug and this study will be conducted in diabetic patient population that generally has high risk factors, inclusion and exclusion have been carefully established to avoid exposing patients to undue risk. In addition, adequate safety monitoring procedures and stopping criteria are placed in the protocol.

[2] = Ongoing Phase 2 efficacy and safety study in subjects with diabetic neuropathic pain; format: in vivo, human; details: 100 mg BID up to 6 weeks
Experimental: as §1, §2

[3] = molecular target: T-type (Cav3.2) calcium channel (Homo sapiens, UniProt O95180); experiment: T-type calcium channel block (statement of selectivity)
T-type (Cav3.2) calcium channel, sequence (O95180 whole entry): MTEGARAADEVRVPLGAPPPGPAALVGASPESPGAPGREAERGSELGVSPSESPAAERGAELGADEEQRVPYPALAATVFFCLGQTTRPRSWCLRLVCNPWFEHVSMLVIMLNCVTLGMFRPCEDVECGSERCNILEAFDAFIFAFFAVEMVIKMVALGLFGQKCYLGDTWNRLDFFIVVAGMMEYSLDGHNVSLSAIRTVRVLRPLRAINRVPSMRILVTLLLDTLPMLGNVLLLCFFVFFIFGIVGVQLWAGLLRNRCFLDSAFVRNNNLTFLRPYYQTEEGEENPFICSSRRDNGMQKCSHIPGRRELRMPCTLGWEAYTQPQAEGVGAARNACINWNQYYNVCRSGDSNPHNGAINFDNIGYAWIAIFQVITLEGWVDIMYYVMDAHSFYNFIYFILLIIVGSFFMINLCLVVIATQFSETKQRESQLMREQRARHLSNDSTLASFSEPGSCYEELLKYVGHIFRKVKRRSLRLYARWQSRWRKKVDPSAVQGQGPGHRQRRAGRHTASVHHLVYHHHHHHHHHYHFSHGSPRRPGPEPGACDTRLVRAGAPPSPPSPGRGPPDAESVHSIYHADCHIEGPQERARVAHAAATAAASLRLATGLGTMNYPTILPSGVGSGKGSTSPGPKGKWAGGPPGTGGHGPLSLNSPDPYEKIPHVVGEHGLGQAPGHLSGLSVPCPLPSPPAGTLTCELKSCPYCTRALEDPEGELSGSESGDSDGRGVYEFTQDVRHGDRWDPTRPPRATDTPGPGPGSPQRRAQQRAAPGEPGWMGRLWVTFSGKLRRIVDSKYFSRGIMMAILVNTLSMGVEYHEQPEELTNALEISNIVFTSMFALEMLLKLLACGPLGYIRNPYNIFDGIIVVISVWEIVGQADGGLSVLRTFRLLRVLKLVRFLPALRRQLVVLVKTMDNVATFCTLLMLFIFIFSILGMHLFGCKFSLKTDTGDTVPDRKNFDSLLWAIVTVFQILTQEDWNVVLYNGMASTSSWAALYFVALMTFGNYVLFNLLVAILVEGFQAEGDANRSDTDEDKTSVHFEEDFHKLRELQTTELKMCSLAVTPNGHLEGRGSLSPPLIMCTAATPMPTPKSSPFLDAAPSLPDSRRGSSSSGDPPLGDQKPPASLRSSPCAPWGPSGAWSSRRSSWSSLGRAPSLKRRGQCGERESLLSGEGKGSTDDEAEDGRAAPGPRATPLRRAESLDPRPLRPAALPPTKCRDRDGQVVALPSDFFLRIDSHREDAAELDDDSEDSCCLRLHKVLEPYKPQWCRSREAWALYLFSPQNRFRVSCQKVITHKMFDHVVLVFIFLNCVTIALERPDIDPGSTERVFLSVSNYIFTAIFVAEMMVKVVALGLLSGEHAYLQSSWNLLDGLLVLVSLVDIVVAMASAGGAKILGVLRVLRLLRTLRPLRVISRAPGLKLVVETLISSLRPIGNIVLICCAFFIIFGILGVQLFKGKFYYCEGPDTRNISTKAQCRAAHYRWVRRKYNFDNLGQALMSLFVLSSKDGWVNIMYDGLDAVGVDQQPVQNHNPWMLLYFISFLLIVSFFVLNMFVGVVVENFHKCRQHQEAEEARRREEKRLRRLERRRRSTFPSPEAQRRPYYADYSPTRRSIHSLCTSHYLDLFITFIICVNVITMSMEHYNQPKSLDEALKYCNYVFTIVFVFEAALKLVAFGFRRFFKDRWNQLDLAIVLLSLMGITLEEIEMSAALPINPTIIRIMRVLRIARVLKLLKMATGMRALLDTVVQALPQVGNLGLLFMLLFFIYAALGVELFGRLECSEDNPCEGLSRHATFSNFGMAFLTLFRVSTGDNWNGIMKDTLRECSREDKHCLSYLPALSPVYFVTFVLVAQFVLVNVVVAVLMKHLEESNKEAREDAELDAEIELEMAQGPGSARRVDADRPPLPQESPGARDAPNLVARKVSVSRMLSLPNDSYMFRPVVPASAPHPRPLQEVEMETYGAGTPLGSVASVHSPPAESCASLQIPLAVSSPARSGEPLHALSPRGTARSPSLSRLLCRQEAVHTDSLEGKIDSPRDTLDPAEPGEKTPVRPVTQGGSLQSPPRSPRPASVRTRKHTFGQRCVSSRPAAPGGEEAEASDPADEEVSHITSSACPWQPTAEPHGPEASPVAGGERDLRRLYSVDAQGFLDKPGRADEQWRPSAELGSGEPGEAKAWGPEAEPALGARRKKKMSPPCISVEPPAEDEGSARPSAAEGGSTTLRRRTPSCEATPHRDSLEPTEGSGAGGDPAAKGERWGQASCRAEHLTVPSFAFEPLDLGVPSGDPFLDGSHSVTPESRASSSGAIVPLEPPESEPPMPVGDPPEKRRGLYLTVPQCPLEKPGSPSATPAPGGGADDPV

[4] = cited from earlier work
[5] = 94 healthy adult subjects, single dose up to 170 mg, multiple doses up to 160 mg for 7 to 14 days

| Structure (SMILES) | tolerability ([1]; 94 healthy adult subjects, single dose up to 170 mg and multiple doses up to 160 mg for 7 to 14 days) | dose dependence of occurrence of adverse events [1, 5] | findings in vital signs, ECG and laboratory tests [1, 5] | severity of adverse events [1, 5] | safety findings ([1]; Phase 1 studies in healthy adults and healthy elderly subjects) | adverse drug reactions in the current clinical program ([1]; current clinical program) | tolerability of single doses ([1]; single doses up to 170 mg, healthy subjects) | safety findings [2] | selectivity as calcium channel blocker [3] | effect on pain ([4]; IV infusion 2 mg/kg or 5 mg/kg, patients with painful diabetic neuropathy) | pain relief versus placebo ([4]; IV infusion 5 mg/kg, patients with painful diabetic neuropathy) | duration of pain relief following infusion ([4]; patients with diabetic neuropathy) | effect of systemic administration in neuropathic pain conditions ([4]; systemic administration, several neuropathic pain conditions) |
| --- | --- | --- | --- | --- | --- | --- | --- | --- | --- | --- | --- | --- | --- |
| O=C(c1cc(S(=O)(=O)Nc2ccccc2F)c(F)cc1Cl)N1CCN2CCC[C@@H]2C1 [Compound A, 4-chloro-2-fluoro-N-(2-fluorophenyl)-5-[(8aR)-hexahydropyrrolo[1,2-a]pyrazin-2(1H)-ylcarbonyl]benzenesulfonamide] | well tolerated | does not appear to be dose-dependent | no clinically relevant findings | mild except one event | no clinically important safety findings | no adverse drug reactions identified | well-tolerated | no clinically important safety findings | highly selective | – | – | – | – |
| CCN(CC)CC(=O)Nc1c(C)cccc1C [Lidocaine] | – | – | – | – | – | – | – | – | – | reduction of pain | consistent superiority to placebo | up to 21 days | analgesic effects |
